Results from patent US12024513B2, “NLRP3 modulators” (INNATE TUMOR IMMUNITY, INC., priority 2018, dated 2024).
pEC50, pIC50: −log10 of the molar value.

The compounds below were run against T1, NLRP3 (Homo sapiens, UniProt Q96P20) (assay: Measurement of IL-1β production in PMA-differentiated THP-1 cells (NLRP3 hIL1B)). Conditions: one or more of the described procedures.
T1 construct: host or cells: THP-1 cells, PMA-differentiated
T1 sequence (Q96P20 whole entry): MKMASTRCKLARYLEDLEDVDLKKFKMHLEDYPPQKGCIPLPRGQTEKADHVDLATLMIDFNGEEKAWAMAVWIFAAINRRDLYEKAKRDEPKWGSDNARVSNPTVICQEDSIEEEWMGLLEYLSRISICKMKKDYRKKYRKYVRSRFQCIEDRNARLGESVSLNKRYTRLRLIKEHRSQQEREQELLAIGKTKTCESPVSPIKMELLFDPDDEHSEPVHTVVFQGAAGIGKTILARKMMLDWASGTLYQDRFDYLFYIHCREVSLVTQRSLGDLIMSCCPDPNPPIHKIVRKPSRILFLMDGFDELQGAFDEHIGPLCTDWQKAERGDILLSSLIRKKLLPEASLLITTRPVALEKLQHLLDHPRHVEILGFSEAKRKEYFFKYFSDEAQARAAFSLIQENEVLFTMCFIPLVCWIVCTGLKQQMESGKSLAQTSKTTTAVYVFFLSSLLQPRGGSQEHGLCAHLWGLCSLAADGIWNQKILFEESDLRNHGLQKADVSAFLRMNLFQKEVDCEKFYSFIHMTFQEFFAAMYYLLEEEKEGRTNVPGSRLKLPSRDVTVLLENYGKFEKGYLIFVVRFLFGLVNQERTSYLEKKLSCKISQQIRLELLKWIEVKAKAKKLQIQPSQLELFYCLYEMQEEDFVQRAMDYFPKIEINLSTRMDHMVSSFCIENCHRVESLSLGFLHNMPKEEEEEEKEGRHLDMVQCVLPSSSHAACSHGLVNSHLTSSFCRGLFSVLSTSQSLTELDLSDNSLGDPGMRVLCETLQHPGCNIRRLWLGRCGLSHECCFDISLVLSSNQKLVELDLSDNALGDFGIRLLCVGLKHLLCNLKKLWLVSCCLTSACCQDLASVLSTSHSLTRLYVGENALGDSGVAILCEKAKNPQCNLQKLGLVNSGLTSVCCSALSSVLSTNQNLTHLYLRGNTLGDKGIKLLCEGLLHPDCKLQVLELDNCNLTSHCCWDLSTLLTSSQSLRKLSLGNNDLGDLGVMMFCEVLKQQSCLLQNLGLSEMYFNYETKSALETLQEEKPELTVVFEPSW
Format: cell-based
Protocol: Measurement of IL-1β Production in PMA-Differentiated THP-1 Cells
THP-1 cells were purchased from the American Type Culture Collection and sub-cultured according to instructions from the supplier. Prior to experiments, cells were cultured in RPMI 1640 containing 10% heat inactivated FBS, penicillin (100 units/ml) and streptomycin (100 μg/ml), and maintained in log phase prior to experimental setup. Prior to the experiment THP-1 were treated with PMA (Phorbol 12-myristate 13-acetate) (10 μg/ml) for 24 hours. The day of the experiment the media was removed and attaching cells were treated with trypsin for 2 minutes, cells were then collected, washed with PBS (phosphate buffer saline), spin down, resuspended in 2% heat inactivated FBS with RPMI at a concentration of 1×10^6 cells/ml, and 100 μl was plated in a 96 well plate. Compounds were dissolved in dimethyl sulfoxide (DMSO) and added to the culture medium to achieve desired concentration (e.g. 100, 30, 10, 3, 1, 0.3 or 0.1 μM). Cells were incubated with compounds for 4 hours. Cell free supernatant was collected and the production of IL-1β was evaluated by ELISA. A vehicle only control was run concurrently with each experiment. Final DMSO concentration was 1%.
Measurement of IL-1β Production in PMA-Differentiated THP-1 Cells (Alternative Procedure)
THP-1 cells were purchased from the American Type Culture Collection and sub-cultured according to instructions from the supplier. Prior to experiments, cells were cultured in RPMI 1640 containing 10% heat inactivated FBS, penicillin (100 units/ml), streptomycin (100 μg/ml), HEPES (10 mM) and sodium pyruvate (1 mM) and maintained in log phase prior to experimental setup. Prior to the experiment, THP-1 cells were treated with PMA (Phorbol 12-myristate 13-acetate) (20 μg/ml) overnight. The day of the experiment, the media was removed and attached cells were treated with trypsin for 2 minutes, cells were then collected, washed with PBS (phosphate buffer saline), pelleted by centrifugation and resuspended in 2% heat inactivated FBS with RPMI at a concentration of 50,000 cells/well in a 384 well plate. Cell free supernatant was collected and the production of IL-1β was evaluated by ELISA. Compounds were dissolved in dimethyl sulfoxide (DMSO) and added to the culture medium to achieve desired concentration (e.g. 100, 30, 10, 3, 1, 0.3 or 0.1 μM). Cells were incubated with compounds for 2 hours. A vehicle only control was run concurrently with each experiment. Final DMSO concentration was 1%.
Measurement of IL-1β Production—hTRF Protocol (Second Alternative Procedure)
Serial dilutions of compounds in DMSO were added to low volume 384 well plates at 100 nl/well using an ECHO 550 acoustic dispenser (Labcyte) to achieve final starting concentration of 10 μM in assay.
THP-1 cells in RPMI (Gibco, 11875) media with 10% FBS at a density of 1×10^6 cell/ml in a T175 flask were treated with a final concentration of phorbol 12-myristate 13-acetate (PMA) (Sigma, PI585) of 50 ng/ml overnight at 37° C. at 5% CO2 for differentiation. Cells were harvested the next day after rinsing well wth dPBS using 0.5% trypsin. A cell solution was prepared of 1×10^6 cells/ml for 50,000 cells in 50 μl/well in RPMI media with 2% FBS. Cells were plated using a multichannel pipette onto the compound dilutions in Greiner, 384 well, black clear bottom tissue culture treated plates (781090). The plates were incubated in 37° C. incubator at 5% CO2 for 2 hours.
After the 2 hour incubation, the cell plates were spun in the centrifuge for 5 minutes at 1200 rpm. Using the Felix (CyBio), 8 μl of the supernatant was transferred to 384 well, low volume, white proxy plates. (Perkin Elmer, 6008230). A human ILlbeta hTRF kit was used to analyze the supernatant (CISBIO, 62HIL1BPEG). The kit instructions were followed for preparing the IL1Beta standard curve and then the antibodies from the kit were diluted 1:40 rather than 1:20 as kit instructed. […]
For `Nc1nc2cc(-c3cc[nH]n3)ccc2c2c1nc(CCNC(=O)c1ccc(F)cn1)n2C1CCC1` [Example 1, N-{2-[4-amino-1-cyclobutyl-7-(1H-pyrazol-5-yl)-1H-imidazo[4,5-c]quinolin-2-yl]ethyl}-5-fluoropyridine-2-carboxamide], the pIC50 was 6.92.
`CC(C)n1c(CCNC(=O)c2ccccn2)nc2c(N)nc3cc(-c4cc[nH]n4)ccc3c21` [Example 2] gave a pIC50 of 7.15.
`CC(C)n1c(CNC(=O)c2ccccn2)nc2c(N)nc3cc(-c4cc[nH]n4)ccc3c21` [Example 14] showed a pIC50 of 6.62.
For `COc1ccc(C(=O)NCCc2nc3c(N)nc4cc(-c5cc[nH]n5)ccc4c3n2C(C)C)nc1` [Example 12], the pIC50 was 6.57.
`Nc1nc2cc(-c3cc[nH]n3)ccc2c2c1nc(CNC(=O)C1CCCCO1)n2CC(F)F` (centres unmarked) [Example 19] showed a pIC50 of 6.10.
With `COc1ccc(C(=O)NCCc2nc3c(N)nc4cc(-c5cc[nH]n5)ccc4c3n2C2CC2)nc1` [Example 13] the pIC50 was 5.91.
Compound `Nc1nc2cc(-c3cc[nH]n3)ccc2c2c1nc(CCNC(=O)c1ccccn1)n2C1CC1` [Example 5] has a pIC50 of 6.36.
In the case of `Nc1nc2cc(-c3cc[nH]n3)ccc2c2c1nc(CCNC(=O)C1CCCCO1)n2CC(F)F` (centres unmarked) [Example 17], the pIC50 was 5.88.
`Nc1nc2cc(-c3cc[nH]n3)ccc2c2c1nc(CCNC(=O)c1csc(Cl)n1)n2CC(F)F` [Example 11] was tested, and the pIC50 was 6.23.
With `Nc1nc2cc(-c3cc[nH]n3)ccc2c2c1nc(CNC(=O)C1CCCO1)n2CC(F)F` (centres unmarked) [Example 20] the pIC50 was 5.73.
Compound `CC(C)n1c(CNC(=O)C2CCCO2)nc2c(N)nc3cc(-c4cc[nH]n4)ccc3c21` (centres unmarked) [Example 16] has a pIC50 of 6.66.
`CC(C)n1c(CCNC(=O)c2csc(Cl)n2)nc2c(N)nc3cc(-c4cc[nH]n4)ccc3c21` [Example 10] was tested, and the pIC50 was 6.80.
In the case of `Nc1nc2cc(-c3cc[nH]n3)ccc2c2c1nc(CCNC(=O)c1ccc(F)cn1)n2C1CC1` [Example 8], the pIC50 was 6.57.
With `COc1ccc(C(=O)NCCc2nc3c(N)nc4cc(-c5cc[nH]n5)ccc4c3n2C2CCC2)nc1` [Example 7] the pIC50 was 6.74.
In the case of `Nc1nc2cc(-c3cc[nH]n3)ccc2c2c1nc(CCNC(=O)c1ccccn1)n2CC(F)F` [Example 3], the pIC50 was 6.66.
Compound `Nc1nc2cc(-c3cc[nH]n3)ccc2c2c1nc(CCNC(=O)c1ccccn1)n2C1CCC1` [Example 6] has a pIC50 of 6.39.
In the case of `Nc1nc2cc(-c3cc[nH]n3)ccc2c2c1nc(CCNC(=O)c1ccc(F)cn1)n2CC(F)F` [Example 4], the pIC50 was 6.47.
With `CC(C)n1c(CCNC(=O)C2CCCO2)nc2c(N)nc3cc(-c4cc[nH]n4)ccc3c21` (centres unmarked) [Example 18] the pIC50 was 5.71.
Work on `CC(C)n1c(CNC(=O)C2CCCCO2)nc2c(N)nc3cc(-c4cc[nH]n4)ccc3c21` (centres unmarked) [Example 15] yielded a pIC50 of 6.57.
For `CC(C)n1c(CCNC(=O)c2ccc(F)cn2)nc2c(N)nc3cc(-c4cc[nH]n4)ccc3c21` [Example 9], the pIC50 was 6.92.

These compounds were tested against T2, human TLR8 (Homo sapiens, UniProt Q9NR97) (assay: In vitro human TLR8 reporter assay (HEK-Blue, NF-kB/AP1-inducible SEAP)). Conditions: HEK-Blue cells co-expressing TLR8 and SEAP reporter, 18 h; read-out: TLR8 agonist EC50.
T2 construct: host or cells: human HEK-Blue cells
T2 sequence (Q9NR97 27-1041): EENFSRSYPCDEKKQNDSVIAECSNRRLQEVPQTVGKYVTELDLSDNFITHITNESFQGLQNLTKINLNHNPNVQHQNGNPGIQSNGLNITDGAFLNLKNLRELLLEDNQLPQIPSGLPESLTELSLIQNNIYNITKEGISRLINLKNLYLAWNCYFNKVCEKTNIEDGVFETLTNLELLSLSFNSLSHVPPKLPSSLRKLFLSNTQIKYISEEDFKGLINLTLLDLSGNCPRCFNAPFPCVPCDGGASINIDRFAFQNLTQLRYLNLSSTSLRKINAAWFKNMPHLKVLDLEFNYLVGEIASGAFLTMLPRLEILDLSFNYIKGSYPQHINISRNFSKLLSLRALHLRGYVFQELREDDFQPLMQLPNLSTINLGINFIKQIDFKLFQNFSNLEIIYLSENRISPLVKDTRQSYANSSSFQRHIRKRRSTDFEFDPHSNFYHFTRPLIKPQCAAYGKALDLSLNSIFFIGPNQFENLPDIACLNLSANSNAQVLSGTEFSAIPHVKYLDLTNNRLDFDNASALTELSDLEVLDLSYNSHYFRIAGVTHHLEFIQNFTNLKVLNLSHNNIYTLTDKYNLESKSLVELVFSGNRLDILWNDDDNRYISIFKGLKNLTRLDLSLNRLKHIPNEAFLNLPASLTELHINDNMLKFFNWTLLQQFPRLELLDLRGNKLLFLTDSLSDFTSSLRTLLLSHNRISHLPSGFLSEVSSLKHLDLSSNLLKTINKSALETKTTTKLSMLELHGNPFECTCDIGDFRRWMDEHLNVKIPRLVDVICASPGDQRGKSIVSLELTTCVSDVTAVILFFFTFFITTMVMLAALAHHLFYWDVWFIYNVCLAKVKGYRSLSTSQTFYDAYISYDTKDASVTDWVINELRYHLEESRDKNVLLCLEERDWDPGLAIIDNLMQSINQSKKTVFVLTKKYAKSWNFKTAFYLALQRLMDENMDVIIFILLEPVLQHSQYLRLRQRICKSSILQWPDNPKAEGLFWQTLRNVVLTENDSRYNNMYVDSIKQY
Format: cell-based
Protocol: (§1) In Vitro Human TLR7 and TLR8 Binding Reporter Assays
(§2) Logarithmically-growing human HEK-Blue cells co-expressing a TLR7 or TLR8 gene and a NF-kB/AP1-inducible SEAP (secreted embryonic alkaline phosphatase; Invivogen, San Diego, CA) reporter gene are added to individual wells of a 384-well plate (15,000 cells per 20 μL per well) and maintained for 24 h at 37° C. 5% CO2. Test compounds or DMSO are distributed to separate wells the next day using acoustic liquid handling technology (100 nL per well) and cells are subsequently incubated for 18 h at 37° C. 5% CO2. Cellular SEAP production is measured using an Envision plate reader instrument thirty minutes after adding freshly-made Quanti-Blue reagent (prepared by following manufacturer instructions; Invivogen, San Diego, CA) to the HEK-Blue TLR Nf-kB-SEAP cell reactions. All EC50 values (half-maximal effective concentration) are determined using proprietary data analysis software. Normalized EC50 value=absolute value determined by setting 100% Ymax using a reference standard RLU (relative light unit) values from cells treated with 50 μM of the reference standard.
`CC(C)n1c(CNC(=O)c2ccccn2)nc2c(N)nc3cc(-c4cc[nH]n4)ccc3c21` [Example 14] showed a pEC50 of 4.00 to 4.70.
Compound `Nc1nc2cc(-c3cc[nH]n3)ccc2c2c1nc(CNC(=O)C1CCCCO1)n2CC(F)F` (centres unmarked) [Example 19] has a pEC50 of 4.00 to 4.70.

What follows are compounds tested against T3, human TLR7 (Homo sapiens, UniProt Q9NYK1) (assay: In vitro human TLR7 reporter assay (HEK-Blue, NF-kB/AP1-inducible SEAP)). Conditions: HEK-Blue cells co-expressing TLR7 and SEAP reporter, 18 h; read-out: TLR7 agonist EC50.
T3 construct: host or cells: human HEK-Blue cells
T3 sequence (Q9NYK1 27-1049): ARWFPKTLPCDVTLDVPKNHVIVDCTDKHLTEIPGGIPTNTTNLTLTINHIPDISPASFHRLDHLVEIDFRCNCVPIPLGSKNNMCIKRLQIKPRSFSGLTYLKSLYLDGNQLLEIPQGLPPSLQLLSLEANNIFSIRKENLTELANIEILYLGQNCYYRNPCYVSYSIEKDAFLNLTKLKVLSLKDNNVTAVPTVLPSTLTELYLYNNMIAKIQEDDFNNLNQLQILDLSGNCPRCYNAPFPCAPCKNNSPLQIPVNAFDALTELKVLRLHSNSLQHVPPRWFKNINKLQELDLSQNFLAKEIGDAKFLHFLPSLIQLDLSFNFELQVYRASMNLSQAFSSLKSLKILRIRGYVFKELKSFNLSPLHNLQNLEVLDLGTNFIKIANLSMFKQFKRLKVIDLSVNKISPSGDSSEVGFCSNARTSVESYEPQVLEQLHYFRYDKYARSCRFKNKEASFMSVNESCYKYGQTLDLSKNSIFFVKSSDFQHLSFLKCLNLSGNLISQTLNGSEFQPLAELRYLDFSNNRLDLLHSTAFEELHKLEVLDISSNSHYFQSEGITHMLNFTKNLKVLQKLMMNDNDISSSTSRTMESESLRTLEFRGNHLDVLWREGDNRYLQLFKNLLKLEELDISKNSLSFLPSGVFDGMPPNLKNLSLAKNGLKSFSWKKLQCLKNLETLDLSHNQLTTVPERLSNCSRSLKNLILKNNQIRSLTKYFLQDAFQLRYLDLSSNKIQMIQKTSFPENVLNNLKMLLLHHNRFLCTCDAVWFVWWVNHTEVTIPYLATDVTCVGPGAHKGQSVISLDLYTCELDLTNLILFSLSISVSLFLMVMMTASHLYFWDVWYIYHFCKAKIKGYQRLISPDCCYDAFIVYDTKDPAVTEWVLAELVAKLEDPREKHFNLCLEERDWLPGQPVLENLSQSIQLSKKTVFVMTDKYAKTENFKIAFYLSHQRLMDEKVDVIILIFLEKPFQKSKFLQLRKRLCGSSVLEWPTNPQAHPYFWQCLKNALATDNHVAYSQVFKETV
Format: cell-based
Protocol: as §1, §2
In the case of `Nc1nc2cc(-c3cc[nH]n3)ccc2c2c1nc(CNC(=O)C1CCCCO1)n2CC(F)F` (centres unmarked) [Example 19], the pEC50 was 4.00 to 4.70.
